According to paper PMC9866752 (Life, 2023):

T1: human Frataxin (FXN) (Homo sapiens, UniProt Q16595)
T1 construct: D91-A210, N-terminal 6xHis-GST tag cut with thrombin; E. coli BL21; 15N-labelled
T1 sequence (Q16595 91-210): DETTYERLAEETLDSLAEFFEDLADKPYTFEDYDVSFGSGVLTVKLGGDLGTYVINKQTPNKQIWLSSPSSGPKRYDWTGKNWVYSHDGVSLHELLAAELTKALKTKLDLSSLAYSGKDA

B1: human ferrochelatase (residues R65 to L423) (enzyme, UniProt P22830 65-423, looked up)
chain: RKPKTGILMLNMGGPETLGDVHDFLLRLFLDRDLMTLPIQNKLAPFIAKRRTPKIQEQYRRIGGGSPIKIWTSKQGEGMVKLLDELSPNTAPHKYYIGFRYVHPLTEEAIEEMERDGLERAIAFTQYPQYSCSTTGSSLNAIYRYYNQVGRKPTMKWSTIDRWPTHHLLIQCFADHILKELDHFPLEKRSEVVILFSAHSLPMSVVNRGDPYPQEVSATVQKVMERLEYCNPYRLVWQSKVGPMPWLGPQTDESIKGLCERGRKNILLVPIAFTSDHIETLYELDIEYSQVLAKECGVENIRRAESLNGNPLFSKALADLVHSHIQSNELCSKQLTLSCPLCVNPVCRETKSFFTSQQL
notes: ferrochelatase, human, residues R65 to L423; Eluted as a homodimer (88 kDa); The tag is inferred; no cleavage is described; also called FCH; FECH; source: recombinant expression from pET28a in Luria-Bertani media, purified (cobalt HisTrap, gel filtration)

What was measured:
[1] = target: T1, human Frataxin (FXN); assay: NMR 1H-15N SOFAST-HMQC titration, chemical shift perturbation, Hill fit; type: binding
[2] = target: the molecule itself; assay: SEC; Sd200/16/600 gel filtration column, last step of the purification; buffer with 50 mM MOPS-Tris pH 8.0, 100 mM KCl, 1% sodium cholate, 10% glycerol, 100 uM TCEP

| Molecule | EC50 [1] [µM] | stoichiometry N [2] |
| --- | --- | --- |
| C=CC1=C(C)c2cc3[nH]c(cc4nc(cc5[nH]c(cc1n2)c(C)c5CCC(=O)O)C(CCC(=O)O)=C4C)c(C)c3C=C [Protoporphyrin IX] | 140 |  |
| B1 |  | 2 |
